From PubChem BioAssay AID651703 (Broad Institute, 2012)

These compounds were tested against Transforming acidic coiled-coil-containing protein 3 (Homo sapiens) (UniProt Q9Y6A5) (assay: inhibition of ARNT PAS-B/TACC3 complex formation – biochemical, AlphaScreen, cherry-picked samples, confirmation (AID 651703;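 also: TACC3 partner is the GST-tagged E629A mutant dimer; hits lower the signal meaning they disrupt ARNT binding to TACC3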)). Conditions: AlphaScreen His-ARNT PAS-B / GST-TACC3 binding, luminescence.
Compound `O=c1cc(-c2ccc(O)cc2)oc2c(O)c(O)c(O)c(O)c12` has an AC50 of 63 µM.
With `COc1ccc(C)cc1NC(=O)CSc1ccc(-c2ccccn2)nn1` the AC50 was 3.11 µM.
Compound `O=[N+]([O-])c1cccc(/C=N/Nc2nc(NCc3ccccc3)nc(N3CCOCC3)n2)c1O` has an AC50 of 2.29 µM.
In the case of `O=C(N/N=C/c1cc(Br)ccc1O)C(c1ccncc1)N1CCOCC1` (configuration not stated), the AC50 is reported as 13.4 µM.
`COc1ccc(C2C(C#N)=C(N)Oc3n[nH]c(-c4ccccn4)c32)c(OC)c1OC` (configuration not stated) was tested, and the AC50 was 53.3 µM.
`COc1ccc(NC(=O)N[C@H]2CC[C@H](CCn3cc(-c4ccccn4)nn3)O[C@@H]2CO)cc1` was tested, and the AC50 was 12 µM.
For `CCOc1ncccc1C(=O)OCC(=O)Nc1nnc(-c2ccccc2)o1`, the AC50 was 21.6 µM.
For `O=C(COC(=O)c1ccco1)Nc1nnc(-c2ccccc2)o1`, the AC50 was 24.8 µM.
For `CCOc1ccccc1C(=O)OCC(=O)Nc1nnc(-c2ccccc2)o1`, the AC50 was 23.3 µM.
`O=C(N[C@@H]1CC[C@H](CCn2cc(-c3ccccn3)nn2)O[C@H]1CO)c1ccccc1` showed an AC50 of 27.6 µM.
With `COCc1ccc(O)c2ncccc12` the AC50 was 2.22 µM.
`O=C(CSc1ccc(-c2ccccn2)nn1)c1ccccc1` gave an AC50 of 3.36 µM.
Compound `CCN(CC)S(=O)(=O)c1cccc(C(=O)N/N=C/c2ccc(O)c(O)c2O)c1` has an AC50 of 4.5 µM.
`CC1CCCC(C)N1/N=C/c1ccc([N+](=O)[O-])cc1` (configuration not stated) was tested, and the AC50 was 17 µM.
With `Cc1ccccc1-n1c(SCC(=O)Nc2ccc3c(c2)OCO3)nnc1-c1ccccn1` the AC50 was 15.6 µM.
Work on `COc1cc(CNCc2ccccn2)ccc1OCc1cccc(Cl)c1` yielded an AC50 of 62.6 µM.
`COc1cc(/C=N/N(CCO)C2=NS(=O)(=O)c3ccccc32)cc(OC)c1OC` showed an AC50 of 15.6 µM.
`COc1cc2c(c(OC)c1OC)-c1ccc(O)c(=O)cc1[C@@H](N)CC2` was tested, and the AC50 was 29.7 µM.
With `CN(C)CCCNC(=O)c1ccc(-c2cc(O)c3ncccc3c2)cc1` the AC50 was 2.78 µM.
In the case of `OCC1CCN(Cc2ccc(O)c3ncccc23)CC1`, the AC50 is reported as < 0.5 µM.
`O=C(Nc1nnc(-c2ccncc2)o1)c1ccccc1` was tested, and the AC50 was 18.8 µM.
With `CCC(=O)NC(C)c1cc(Cl)c2cccnc2c1O` (configuration not stated) the AC50 was 4.72 µM.
`N#Cc1ccc(C(=O)Nc2nnc(-c3ccccn3)o2)cc1` was tested, and the AC50 was 22.4 µM.
`COc1ccc(Cc2nnc(NN)[nH]c2=O)cc1OC` showed an AC50 of 6.72 µM.
In the case of `Cc1ccc(C)c(S(=O)(=O)N2CCN(Cc3ccc(O)c4ncccc34)CC2)c1`, the AC50 is reported as 5.27 µM.
For `O=C(CSc1cccc2cccnc12)Nc1cc(C(=O)O)cc(C(=O)O)c1`, the AC50 was 17.9 µM.
With `COc1ccc(NC(=O)N[C@H]2CC[C@@H](CCn3cc(-c4ccccn4)nn3)O[C@H]2CO)cc1` the AC50 was 17 µM.
`COc1cc(CNCc2ccccn2)ccc1OCc1ccc(Cl)cc1` was tested, and the AC50 was 60.7 µM.
With `O=C(N/N=C/C=C/c1ccco1)c1cnccn1` the AC50 was 55.4 µM.
`COc1cc(CCNc2ccc3nnc(-c4ccccc4)n3n2)cc(OC)c1OC` gave an AC50 of 10.6 µM.
With `O=C(NCCCn1ccnc1)C(=O)NCC1OCCN1S(=O)(=O)c1ccc2c(c1)OCCO2` (configuration not stated) the AC50 was 13.2 µM.
In the case of `Cc1nnc(NC(=O)c2ccc(S(=O)(=O)N3CC(C)OC(C)C3)cc2)o1` (configuration not stated), the AC50 is reported as 44.6 µM.
Compound `O=C(N/N=C/c1cc(Cl)cc(Cl)c1O)c1ccncc1` has an AC50 of 3.58 µM.
`Cc1ccc(C(=O)Nc2nc(-c3ccccn3)cs2)cc1S(=O)(=O)N1CCOCC1` was tested, and the AC50 was 2.37 µM.
With `COc1ccc(NC(=O)CSc2nnc(-c3ccccn3)n2N)cc1` the AC50 was 13.2 µM.
`COc1ccccc1NC(=O)CSc1n[nH]c(-c2ccccn2)n1` showed an AC50 of 0.821 µM.
In the case of `COc1ccc(Cc2nnc(N/N=C/c3ccccc3O)[nH]c2=O)cc1OC`, the AC50 is reported as 1.42 µM.
`O=C(N/N=C/c1c(O)ccc2ccccc12)c1ccc(CO)nc1` gave an AC50 of 10.8 µM.
Work on `COc1ccc(NC(=O)N[C@@H]2CC[C@H](CCn3cc(-c4ccccn4)nn3)O[C@@H]2CO)cc1` yielded an AC50 of 21.5 µM.
In the case of `CCOc1cccc(/C=N/NC(=O)c2cccnc2)c1O`, the AC50 is reported as 21.6 µM.
With `Oc1ccc(/C=N/Nc2ncc(Br)cn2)c(O)c1` the AC50 was 6.19 µM.
`O=C(NCCCn1ccnc1)Nc1ccc(Cl)c(Cl)c1` showed an AC50 of 25.2 µM.
Work on `Cc1cccc(S(=O)(=O)N[C@H]2CC[C@H](CCn3cc(-c4ccccn4)nn3)O[C@H]2CO)c1` yielded an AC50 of 18.5 µM.
`O=C(COC(=O)c1ccc(O)cc1O)Nc1nnc(-c2ccccc2)o1` was tested, and the AC50 was 13.7 µM.
`N#Cc1ccsc1NC(=O)c1ccccn1` showed an AC50 of 21.9 µM.
In the case of `C/C(=N\NC(=O)C1CCCN(S(=O)(=O)c2ccccc2)C1)c1ccccn1` (configuration not stated), the AC50 is reported as 11.1 µM.
`O=C(Nc1nc(-c2ccccn2)cs1)c1ccc(Cl)s1` was tested, and the AC50 was 3.61 µM.
`COc1ccc(S(=O)(=O)N2CCCOC2CNC(=O)C(=O)NCCCn2ccnc2)cc1OC` (configuration not stated) showed an AC50 of 47.2 µM.
With `Clc1ccc(-c2ccc(CNCc3ccccn3)o2)cc1` the AC50 was 20 µM.
`C/C(=N\NC(=O)C(c1ccccc1)c1ccccc1)c1ccc(O)cc1` showed an AC50 of 43.1 µM.
In the case of `COc1ccc(/C=N/Nc2nncn2N)cc1Br`, the AC50 is reported as 25.1 µM.
`O=C(CSc1ccc2nnc(-c3ccccn3)n2n1)NCc1ccco1` showed an AC50 of 9.49 µM.
For `COc1ccc(O)c(/C=N\NC(=O)CCn2nnc3ccccc32)c1`, the AC50 was 33.4 µM.
In the case of `COc1c(O)cccc1/C=N/NC(=O)Cn1ccnc1C`, the AC50 is reported as 8.02 µM.
`CC(C)C(=O)NC(c1cccc([N+](=O)[O-])c1)c1ccc2cccnc2c1O` (configuration not stated) gave an AC50 of 3.82 µM.
With `CCOC(=O)CSc1cccc2cccnc12` the AC50 was 4.59 µM.
`CN(C)S(=O)(=O)c1cccc(NC(=O)CSc2cccc3cccnc23)c1` was tested, and the AC50 was 5.76 µM.
